Reference: patent publication US20220009920A1 (GB005, Inc., priority 2020, published 2022)
Read-outs that look alike come from different tables or passages of the source.

Assays:
[1] = Plasma and total brain concentrations at 1 h post single oral administration to female C57BL/6 mice; format: in vivo; settings: mouse, 10 mg/kg oral gavage; for Kp at 1 h: brain/plasma, read-out: brain to plasma ratio
Method: The appropriate amount of test article was dissolved 10% dimethylacetamide (DMA)/90% (20% hydroxypropyl-β-cyclodextrin (HP-B-CD) w/v in water to obtain a final concentration of 1 mg/mL for oral dosing. Sonication, vortex, and homogenization was used as needed. Three female C57BL/6 mice aged 7-9 weeks (20-30 grams) were dosed by oral gavage 10 mg/kg solution of the test article.
Concentrations of test compounds in the plasma and brain samples (use plasma and brain homogenate standard curve for all samples appropriately) were analyzed using LC-MS/MS. Compounds having a brain-to-plasma ratio of greater than 0.2 were considered brain penetrant.

BTK = target: T1, BTK (Homo sapiens, UniProt Q06187); test: Assay to determine activity against BTK; format: biochemical; settings: 1 mM ATP, 2 nM BTK, 90 minutes at room temperature
T1 construct: purchased Cama
T1 sequence (Q06187 whole entry): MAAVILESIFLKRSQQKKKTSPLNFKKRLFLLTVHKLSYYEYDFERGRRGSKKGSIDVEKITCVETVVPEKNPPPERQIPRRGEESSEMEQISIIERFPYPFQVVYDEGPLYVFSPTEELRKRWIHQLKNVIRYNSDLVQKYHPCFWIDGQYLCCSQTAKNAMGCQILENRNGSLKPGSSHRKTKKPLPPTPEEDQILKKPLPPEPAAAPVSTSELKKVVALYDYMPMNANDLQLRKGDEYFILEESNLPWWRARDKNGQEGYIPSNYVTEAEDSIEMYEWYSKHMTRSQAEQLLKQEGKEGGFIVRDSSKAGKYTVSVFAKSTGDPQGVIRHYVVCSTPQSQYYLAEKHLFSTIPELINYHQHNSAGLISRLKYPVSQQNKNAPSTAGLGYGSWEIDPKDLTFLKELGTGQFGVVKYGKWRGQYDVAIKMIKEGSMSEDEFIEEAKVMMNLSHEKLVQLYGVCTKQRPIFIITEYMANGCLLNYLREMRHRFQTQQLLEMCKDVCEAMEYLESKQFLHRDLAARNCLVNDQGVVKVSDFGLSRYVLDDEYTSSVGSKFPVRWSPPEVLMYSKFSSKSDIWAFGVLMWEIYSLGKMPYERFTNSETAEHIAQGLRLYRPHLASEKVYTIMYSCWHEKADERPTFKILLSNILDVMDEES
Method: Solutions of compounds (test or control) in DMSO were prepared at the desired concentrations, and serially diluted to 11 concentrations by 3-fold dilution in 384pp-plate using TECAN EVO200. 20 nL of stock were transferred to 384 plate using Echo550. DMSO was used as vehicle control.
(BTK was obtained from Cama; FLPeptide2 was obtained from PerkinElmer and Ibrutinib was obtained from Selleck.) 5 μL of ATP solution were added to each well, followed by addition of 15 μL of BTK solution to initiate the reaction. (Note the final volume of each well was 20 μL containing MgCl2 (10 mM), Brij-35 (0.01%), DTT (2 mM), BSA (0.05%), EGTA (1 mM), HEPE (pH7.5) (50 mM), FLPeptide (1.5 uM), ATP (1 mM) and BTK (2 nM).
The plates were incubated at room temperature for 90 minutes and then stopping buffer added (75 μL, containing 0.5 M EDTA) to terminate the reaction. Samples from each well were analyzed using EZ reader. The % remaining activity was calculated using read conversion ratio (CR) according to the equation: […]
XLFit (equation 201) was used to calculate IC50's by floating both bottom and top.

BTK in RAMOS B cells = test: Assay to determine BTK activity in RAMOS B cells (anti-IgM, FLIPR Calcium 6); format: cell-based; settings: anti-IgM EC80, calcium readout
Method: On the day before assay, Ramos B cells were plated in plating medium (RPMI1640 medium containing 1% FBS and 1× pencillin-streptomycin). On the day of the assay, 2× dye solution was prepared following the manual of the FLIRP Calcium 6 Assay Kit: Dilute the dye with assay buffer (20 mM HEPES in IX HBSS, pH7.4); Add probenecid to the final concentration of 5 mM; vortex vigorously for 1-2 minutes. Cells were collected by centrifuging, and the pellet was re-suspended in plating medium. After counting, cells were re-suspended at a density of 3×10^6/ml in plating medium. Equal volume of 2× dye solution was added to the cell suspension. Cells were then plated at 20 μl/well into a 384-well poly-D-lysine coated plate. Plate was centrifuged at 1000 rpm for 3 minutes and then incubated at 37° C. for 2 hours followed by an additional 15-minute incubation at 25° C. Compounds were prepared at 3× concentration in dilution buffer (20 mM HEPES and 0.1% BSA in 1×HBSS, pH 7.4). Serially diluted compound was transferred from source plate to a 384-well compound plate by using an Echo 550 (Labcyte). 20 μl/well compound dilution buffer was added to the compound plate and mixed on plate shaker for 2 mins. 4× EC80 of Anti-IgM (Jackson ImmunoResearch) was prepared in dilution buffer and 20 μl/well was added to a new 384-well compound plate. After 60 mins of incubation at 25° C. in the dark; cell plate, compound plate containing 4×EC80 of anti-IgM and FLIPR tips were placed into FLIPR (Molecular Devices). 10 ul/well of 4×EC80 anti-IgM was transferred to the cell plate by FLIPR. Plates were read for 160 sec with 1 sec interval.

[2] = plasma, read-out: Mean [plasma]

Compound | concentration at 1 h ([1]; brain, read-out: Mean [brain]) | Kp at 1 h [1] | concentration at 1 h [1, 2] | IC50 (BTK) | IC50 (BTK in RAMOS B cells; Homo sapiens, Ramos) | IC50 (BTK in RAMOS B cells)
CC#CC(=O)N1CCC[C@H]1c1nc(-c2ccc(C(=O)Nc3ccccn3)cc2)c2c(N)nccn12 [Acalabrutinib, reference compound] | 4 ng/g | 0.04 | 120 ng/mL | – | – | –
CC#CC(=O)N[C@H]1CCCN(c2c(F)cc(C(N)=O)c3[nH]c(C)c(C)c23)C1 [Branebrutinib, reference compound] | 15 ng/g | 0.002 | 6820 ng/mL | – | – | –
C=CC(=O)N1CCc2c(cccc2-c2ccc(C(N)=O)c3[nH]c4c(c23)CC2(CC4)CC2)C1 [Compound 7-2, 5-(2-acryloyl-1,2,3,4-tetrahydroisoquinolin-5-yl)-1,2,4,9-tetrahydrospiro[carbazole-3,1′-cyclopropane]-8-carboxamide] | 43 ng/g | 0.39 | 109 ng/mL | 10 to 100 nM | ≥ 100 nM | –
C=CC(=O)N1CCc2c(cccc2-c2c(F)cc(C(N)=O)c3[nH]c4c(c23)CC2(CC4)CC2)C1 [Compound 7-25, 5-(2-acryloyl-1,2,3,4-tetrahydroisoquinolin-5-yl)-6-fluoro-1,2,4,9-tetrahydrospiro[carbazole-3,1′-cyclopropane]-8-carboxamide] | – | – | – | ≥ 100 nM | – | ≥ 100 nM
C=CC(=O)N1CCc2c(cccc2-c2c(C)nc(C(N)=O)c3[nH]c4c(c23)CC2(CC4)CC2)C1 [Compound 7-26, 4′-(2-acryloyl-1,2,3,4-tetrahydroisoquinolin-5-yl)-3′-methyl-5′,7′,8′,9′-tetrahydrospiro[cyclopropane-1,6′-pyrido[3,4-b]indole]-1′-carboxamide] | – | – | – | ≥ 100 nM | ≥ 100 nM | –
C=CC(=O)N1CCc2c(cccc2-c2cnc(C(N)=O)c3[nH]c4c(c23)CC(F)(F)CC4)C1 [Compound 7-29, 4-(2-acryloyl-1,2,3,4-tetrahydroisoquinolin-5-yl)-6,6-difluoro-6,7,8,9-tetrahydro-5H-pyrido[3,4-b]indole-1-carboxamide] | – | – | – | 10 to 100 nM | 10 to 100 nM | –
C=CC(=O)N1CCc2c(cccc2-c2c(F)cc(C(N)=O)c3[nH]c4c(c23)CCN(C)CC4)C1 [Compound 9-6, 10-(2-acryloyl-1,2,3,4-tetrahydroisoquinolin-5-yl)-9-fluoro-3-methyl-1,2,3,4,5,6-hexahydroazepino[4,5-b]indole-7-carboxamide] | – | – | – | 10 to 100 nM | 10 to 100 nM | –
C=CC(=O)N1CCC=C(c2ccc(C(N)=O)c3[nH]c4c(c23)C[Si](C)(C)CC4)C1 [Compound 9-7, 9-(1-acryloyl-1,2,5,6-tetrahydropyridin-3-yl)-2,2-dimethyl-2,3,4,5-tetrahydro-1H-silino[4,3-b]indole-6-carboxamide] | – | – | – | < 10 nM | 10 to 100 nM | –
CC#CC(=O)N[C@H]1C[C@@H](F)CN(c2c(F)cc(C(N)=O)c3[nH]c4c(c23)CCC4)C1 [Compound 10-9, 8-((3S,5R)-3-(but-2-ynamido)-5-fluoro-piperidin-1-yl)-7-fluoro-1,2,3,4-tetrahydrocyclopenta[b]indole-5-carboxamide] | – | – | – | 10 to 100 nM | 10 to 100 nM | –
C=CC(=O)N1CCC(CNc2ncnc(N)c2-c2ccc(Oc3ccccc3)cc2)CC1 [Evobrutinib, reference compound] | 11 ng/g | 0.06 | 177 ng/mL | – | – | –
C=CC(=O)N1CCC[C@@H](n2nc(-c3ccc(Oc4ccccc4)cc3)c3c(N)ncnc32)C1 [Ibrutinib, reference compound] | 15 ng/g | 0.001 | 306 ng/mL | – | – | –

The remaining lines, values ahead:

concentration at 1 h ([1]; brain, read-out: Mean [brain]) | Kp at 1 h [1] | concentration at 1 h [1, 2] | IC50 (BTK) | IC50 (BTK in RAMOS B cells; Homo sapiens, Ramos) | IC50 (BTK in RAMOS B cells) | Compound
39 ng/g | 0.24 | 163 ng/mL | < 10 nM | < 10 nM | – | C=CC(=O)N1CCC[C@@H](c2cnc(C(N)=O)c3[nH]c4c(c23)CCCC4)C1 [Compound 2-4, (S)-4-(1-acryloylpiperidin-3-yl)-6,7,8,9-tetrahydro-5H-pyrido[3,4-b]indole-1-carboxamide]
4 ng/g | 0.22 | 18 ng/mL | < 10 nM | 10 to 100 nM | – | C=CC(=O)N1CCC=C(c2c(F)cc(C(N)=O)c3[nH]c4c(c23)CCCCC4)C1 [Compound 5-4, 1-(1-acryloyl-1,2,5,6-tetrahydropyridin-3-yl)-2-fluoro-5,6,7,8,9,10-hexahydrocyclohepta[b]indole-4-carboxamide]
– | – | – | < 10 nM | – | 10 to 100 nM | C=CC(=O)N1CCc2c(cccc2-c2c(F)cc(C(N)=O)c3[nH]c4c(c23)CC2(CC4)CC2)C1 [Compound 7-24, 5-(2-acryloyl-1,2,3,4-tetrahydroisoquinolin-5-yl)-6-fluoro-1,2,4,9-tetrahydrospiro[carbazole-3,1′-cyclopropane]-8-carboxamide]
– | – | – | < 10 nM | 10 to 100 nM | – | C=CC(=O)N1CCc2c(cccc2-c2ncc(C(N)=O)c3[nH]c4c(c23)CC2(CC4)CC2)C1 [Compound 7-30, 1′-(2-acryloyl-1,2,3,4-tetrahydroisoquinolin-5-yl)-5′,6′,7′,9′-tetrahydrospiro[cyclopropane-1,8′-pyrido[4,3-b]indole]-4′-carboxamide]
– | – | – | < 10 nM | < 10 nM | – | C=CC(=O)N1CCC=C(c2ccc(C(N)=O)c3[nH]c4c(c23)CSCC4)C1 [Compound 8-1, 9-(1-acryloyl-1,2,5,6-tetrahydropyridin-3-yl)-1,3,4,5-tetrahydrothiopyrano-[4,3-b]indole-6-carboxamide]
– | – | – | < 10 nM | 10 to 100 nM | – | CC#CC(=O)N[C@H]1CCCN(c2c(F)cc(C(N)=O)c3[nH]c4c(c23)CCN(C)CC4)C1 [Compound 9-5, (S)-10-(3-(but-2-ynamido)piperidin-1-yl)-9-fluoro-3-methyl-1,2,3,4,5,6-hexahydroazepino[4,5-b]indole-7-carboxamide]
– | – | – | < 10 nM | < 10 nM | – | C=CC(=O)N1CCC[C@H](c2c(F)cc(C(N)=O)c3[nH]c4c(c23)CCC4)C1 [Compound 10-1, (R)-8-(1-acryloylpiperidin-3-yl)-7-fluoro-1,2,3,4-tetrahydrocyclopenta[b]-indole-5-carboxamide]
– | – | – | < 10 nM | < 10 nM | – | CC#CC(=O)N[C@@H]1C=C(c2c(F)cc(C(N)=O)c3[nH]c4c(c23)CCC4)CCC1 [Compound 10-3, 8-[(3 S)-3-(but-2-ynoylamino)cyclohexen-1-yl]-7-fluoro-1,2,3,4-tetrahydrocyclopenta[b]indole-5-carboxamide]
– | – | – | < 10 nM | < 10 nM | – | CC#CC(=O)N[C@H]1CCC=C(c2c(F)cc(C(N)=O)c3[nH]c4c(c23)CCC4)C1 [Compound 10-4, 8-[(5S)-5-(but-2-ynoylamino)cyclohexen-1-yl]-7-fluoro-1,2,3,4-tetrahydrocyclopenta[b]indole-5-carboxamide]
– | – | – | < 10 nM | 10 to 100 nM | – | CC#CC(=O)N(C)[C@H]1CCCN(c2c(F)cc(C(N)=O)c3[nH]c4c(c23)CCC4)C1 [Compound 10-7, 8-[(3S)-3-[but-2-ynoyl(methyl)amino]-1-piperidyl]-7-fluoro-1,2,3,4-tetrahydrocyclopenta[b]indole-5-carboxamide]
– | – | – | < 10 nM | < 10 nM | – | CC#CC(=O)N[C@H]1C[C@H](F)CN(c2c(F)cc(C(N)=O)c3[nH]c4c(c23)CCC4)C1 [Compound 10-8, 8-((3S,5S)-3-(but-2-ynamido)-5-fluoropiperidin-1-yl)-7-fluoro-1,2,3,4-tetrahydrocyclopenta[b]indole-5-carboxamide]
